{"source": "patent US20230265524A1", "about": "“IMMUNOGENIC RETROELEMENTS AND THEIR USE IN CANCER THERAPY” (UNIVERSITY HEALTH NETWORK, priority 2020, published 2023)", "key": {"MDA5": {"test_system": "MDA5", "experiment": "MDA5-protection assay followed by RNA sequencing", "format": "cell-based, human", "method": "A-C, Percentage of non-repeats and several families of Repetitive Elements in the total cytoplasmic fraction (‘Total CytoRNA’) and in the MDA5-protected fraction (‘MDA5-protected’) at the mock-treated baseline condition (A) and after 5-AZA-CdR treatment at 300 nM for 5 days, p<2.2e-16 (B). Treatment-induced immunogenic RNAs' refers to transcripts present in 5-AZA-CdR treated condition but not present in the baseline mock-treated condition (i.e. induced by the treatment), p<2.2e-16 (C). Each plot is the average percentage of two replicates. P-values represent the Fisher Exact test for enrichment of SINEs and depletion of non-repeats in immunogenic RNAs (5-AZA-CdR) and Treatment-induced immunogenic RNAs as compared to the MDA5-protected baseline immunogenic RNAs.\nD-E, Counts of the expressed Alus in terms of the Log10 Fold change of their MDA5-protected expression over their Total CytoRNA expression. IR-Alus that are MDA5 dsRNA agonists have positive values on the x-axis. […] The color code represents Alus making Inverted Repeats pairs (gray) and Non-IR pairs (black) for Baseline immunogenic RNAs (n=187 Non-IR Alus and 1,602 IR-Alus) (D) and for the Treatment-induced immunogenic RNAs (n=992 Non-IR Alus and 5,199 IR-Alus) (E).\nA, Venn-diagram showing the IR-Alu pairs at the Baseline (n=1,040), Immunogenic (5-AZA-CdR) (n=4,482) and Treatment-induced (n=3,687) conditions.\nViral mimicry response to epigenetic therapy is dependent on activation of the MDA5 pattern recognition receptor by endogenous dsRNAs^1,6,8. Therefore, to directly identify drug-induced immunogenic retroelements, we performed an MDA5-protection assay^19, followed by RNA sequencing. […] In contrast, only 1.71% of MDA5-protected RNAs in mock-treated samples were LTRs and 6.40% were LINEs (FIG. 2A). For DNMTi-treated samples, only 1.81% were LTRs and 7.56% were LINEs (FIG. 2B).\nThen, to identify the immunogenic retroelements induced only by DNMTi treatment (“Treatment-Induced immunogenic RNAs”), we excluded those that were expressed in both the mock- and DNMTi-treated samples (FIG. 3A). Alu retroelements represented 88.72% of all MDA5-protected RNAs present only in DNMTi treated samples (“Treatment-Induced immunogenic RNAs”) (FIG. 2C). Treatment-induced immunogenic RNAs also included non-repeats (5.15%), LINEs (3.86%) and LTRs elements (1.37%) (FIG. 2C). Overall, our results reveal that while many dsRNA species are induced after DNMTi, Alu elements, but not LTRs/ERVs as previously assumed^1,2,4-6,20, are the major source of immunogenic dsRNA induced upon epigenetic therapy.\nTo uncover the molecular mechanisms of how repetitive elements generate immunogenic dsRNA, we examined all repeats in MDA5-protected transcripts and searched for repeat pairs within a 3 Kb window. […] Moreover, MDA5-protected RNA contained higher levels of IR-Alus compared to non-IR (direct repeat) Alus (FIG. 2D-E). The expression of baseline IR-Alus was maintained but not enhanced after 5-AZA-CdR treatment (FIG. 2D, FIG. 3D) while treatment-induced IR-Alu hybrids became highly expressed in the MDA5-protected RNA only after treatment with 5-AZA-CdR (FIG. 2E, FIG. 3E). […] Moreover, the majority of IR-Alu pairs were unidirectionally transcribed either in the sense (both repeats in the positive strand: “+/+”) or antisense (both repeats in the negative strand: “−/−”) direction in both baseline (FIG. 2H) and treatment-induced dsRNA (FIG. 2I)."}, "[1]": {"test_system": "patient-derived xenograft CRC cells", "experiment": "subcutaneous patient-derived xenograft CRC tumour growth in NSG mice", "format": "in vivo", "details": "0.5 mg kg-1 intraperitoneal", "method": "B, Schematic representation of in vivo experimental scheme of non-infected, ADAR1^WT, ADAR1^KDA and ADAR1^KDB patient-derived xenograft CRC cells injected subcutaneously into flanks of NSG mice (n=10 mice per group; 2 tumours per mouse). Arrows represent days of treatment (0.5 mg kg-1 5-AZA-CdR by intraperitoneal injection or vehicle).\nC, Tumour volume measured at the indicated time points. Arrows represent days of treatment. ADAR1^KDA 5-AZA-CdR (n=20 tumours) and ADAR1^KDB 5-AZA-CdR (n=18 tumours at day 12 and n=14 tumours at day15) compared with non-infected (NI) 5-AZA-CdR (n=19 tumours) cohort. Data are mean±s.e.m. ****P<0.0001, Tukey-corrected two-way ANOVA\nD, Colorectal cancer tumours dissected from Vehicle and 5-AZA-CdR cohorts at day 14 post-treatment are depicted for each condition (n=5) (NI=non-infected)\nE, Tumour weight for each group at the time of dissection (day 14 after treatment). Data are mean±s.d. ****P<0.0001, Tukey-corrected ordinary-one-way ANOVA.\nFinally, we sought to investigate whether ADAR1 inhibition would synergize with epigenetic therapy to increase the anti-tumour response. […] To examine the potential synergy in vivo, we injected ADAR1^KDA/B or wildtype patient-derived xenograft CRC cells subcutaneously into immune-deficient NOD.Cg-Prkdc (NSG) mice, and treated the mice with 5-AZA-CdR or vehicle (PBS) (FIG. 12B and FIG. 13A). […]"}, "[2]": {"details": "MDA5-protected RNAs present only in DNMTi treated samples"}, "[3]": {"details": "MDA5-protected, induced by DNMTi"}}, "data": [{"smiles": "Nc1ncn([C@H]2C[C@H](O)[C@@H](CO)O2)c(=O)n1", "note": "[5-AZA-CdR]", "values": [{"measurement": "number of IR-Alu pairs, Immunogenic (5-AZA-CdR) condition", "setting": "MDA5; Baseline n=1,040", "result": "4,482"}, {"measurement": "LTRs in MDA5-protected RNAs", "setting": "MDA5; DNMTi-treated samples, mock-treated 1.71%", "result": 1.81, "unit": "%"}, {"measurement": "LINEs in MDA5-protected RNAs", "setting": "MDA5; DNMTi-treated samples, mock-treated 6.40%", "result": 7.56, "unit": "%"}, {"measurement": "Alus in the MDA5-protected RNA", "setting": "MDA5; Immunogenic RNAs (5-AZA-CdR), 300 nM for 5 days, mock-treated 53.03%", "result": 72.33, "unit": "%"}, {"measurement": "Alu retroelements among Treatment-Induced immunogenic RNAs", "setting": "MDA5; [2]", "result": 88.72, "unit": "%"}, {"measurement": "LINEs among Treatment-induced immunogenic RNAs", "setting": "MDA5; [2]", "result": 3.86, "unit": "%"}, {"measurement": "LTRs elements among Treatment-induced immunogenic RNAs", "setting": "MDA5; [2]", "result": 1.37, "unit": "%"}, {"measurement": "non-repeats among Treatment-induced immunogenic RNAs", "setting": "MDA5; [2]", "result": 5.15, "unit": "%"}, {"measurement": "treatment-induced IR-Alu pairs within intergenic regions", "setting": "MDA5; [3]", "result": 16, "unit": "%"}, {"measurement": "treatment-induced IR-Alu pairs within introns", "setting": "MDA5; [3]", "result": 70, "unit": "%"}, {"measurement": "number of IR-Alu pairs, Treatment-induced condition", "setting": "MDA5; present after 5-AZA-CdR, not at baseline", "result": "3,687"}, {"measurement": "anti-tumour activity", "setting": "[1]; ADAR1^KDA/B cells", "result": "remarkable anti-tumour activity"}, {"measurement": "anti-tumour activity", "setting": "[1]; wildtype cells", "result": "very limited anti-tumour activity"}]}]}
